Here are results for 2 molecules from US9309286B2, “Compositions and methods for augmenting permeability barriers” (TUFTS MEDICAL CENTER, priority 2011, dated 2016).

Structures are written as SMILES. Peptide text beside a SMILES is read from it.

The subject of series [1] is rats.
In series [2] the test system is rats. Kind of series: Evans Blue leak into lungs of rats after p38 inhibitor. To be noted: 1 μmol/kg.

Turning to `C[C@H](NC(=O)[C@H](C)NC(=O)[C@@H]1CCCN1C(=O)[C@H](C)NC(=O)CNC(=O)[C@H](CCCNC(=N)N)NC(=O)[C@H](CCCNC(=N)N)NC(=O)[C@@H](NC(=O)CNC(=O)[C@@H]1CCCN1C(=O)[C@@H](NC(=O)[C@H](CCCNC(=N)N)NC(=O)[C@H](CCCNC(=N)N)NC(=O)[C@H](C)NC(=O)[C@@H]1CCCN1C(=O)[C@H](CC(N)=O)NC(=O)[C@H](CCCNC(=N)N)NC(=O)[C@@H]1CCCN1C(=O)[C@H](Cc1c[nH]cn1)NC(=O)[C@H](C)NC(=O)[C@H](CCCNC(=N)N)NC(=O)[C@H](C)NC(=O)[C@H](CCC(N)=O)NC(=O)[C@H](CCCNC(=N)N)NC(=O)[C@H](C)NC(=O)[C@H](C)NC(=O)[C@H](C)NC(=O)[C@H](CCCNC(=N)N)NC(=O)[C@H](C)NC(=O)[C@@H](N)Cc1ccc(O)cc1)[C@@H](C)O)[C@@H](C)O)C(N)=O` [MK2-activating peptide] (H-YARAAARQARAHPRNPARRTPGTRRGAPAA-NH2), the “Lung weight/body weight, peptide alone” value in the series on rats [1] is “no significant effect”.
As to `C[S+]([O-])c1ccc(-c2nc(-c3ccncc3)c(-c3ccc(F)cc3)[nH]2)cc1` (centres unmarked) [SB203580], in the series with rats [2], the “Leak of intravenously injected Evans Blue into lungs” value is “increase in leak”.
